Measurements published in US20100160178A1, “SYSTEM AND METHOD FOR PRESENTING DNA BINDING SPECIFICITIES USING SPECIFICITY LANDSCAPES” (priority 2008, published 2010).

Columns and labels:
[1] = system: duplex DNA microarray that displays the entire sequence space; assay: CSI (cognate site identifier) array and specificity landscape of the polyamide; format: binding
From the text: (§1) CSI arrays can display the entire sequence space for about 2-10 variable base pair positions. Additionally, CSI arrays can display the entire sequence space for more than 10 base pair positions. Data relating to the binding affinities between the binding molecule and a sample set of DNA sequences (“N-mers”) has been obtained from the CSI DNA microarrays, in which every N-mer sequence is correlated to a fluorescent intensity value. The fluorescent intensity value indicates the amount of interaction between a specific N-mer and the DNA-binding molecule of interest and is proportional to binding affinity. The affinity value is the form of an equilibrium association constant (KA), or a KD value may be converted to KA by the relationship of KA=1/KD. Any biochemical/biophysical technique, other than DNA microarrays, can be used to obtain binding affinities, but these affinities must be related to a specific DNA sequence to be appropriate input for the specificity landscape.
This particular approach is an example of the data input to the specificity landscape algorithm. In particular, the present approach provides a comprehensive and unbiased understanding of the sequence-specificity of DNA binding molecules. Structural DNA variants are all examined to explore the importance of DNA structure on cognate site recognition by these ligands (data not shown). This particular example examines sequences and structural preferences of a small molecule polyamide (ImImPy*Py-γ-PyPyPyPy-β-Dp) designed to recognize the sequence 5′-W-W-G-G-W-W-W-3′ (W=A or T). […] The more distorted, or non-duplex, the DNA becomes the less affinity the polyamide has for that particular DNA sequence. Based upon previous knowledge of this polyamide, the specificity landscape unexpectedly uncovered unique insight into the polyamide relating to sequence and structural specificity of the polyamide-DNA interactions. […] The relative affinity of a particular sequence is represented by the height of the peak. The landscape provides a valuable tool to researchers looking for both the consensus sequences as well as those with the highest affinity.
Each sequence on the array is given a z-score which indicates the probability of a sequence being preferentially bound by the polyamide. As such, each sequence on the array has an intensity denoting the affinity of the polyamide to the sequence. The z-score is calculated using Equation Set 1. The sequences in the highest z-score bins, or with the highest intensities, fit the 5′-W-W-G-G-W-W-W-3′
Z=|intensity−average|/standard deviation Equation Set 1
The cognate site identifier array is a high through put approach for providing a comprehensive profile of the binding properties of DNA-binding molecules. CSI arrays display every permutation of a duplex DNA sequence on a microfabricated array. The CSI is a standard type array where each square (microarray feature) is assigned a specific nucleotide sequence, which includes a linker and a palindromic sequence with a 3-5 nucleotide turn in the middle. This palindromic sequence forms a double-stranded DNA region comprised of, for example, 8 base pairs that represents a specific permutation of an 8mer sequence. The central region of the sequence is buried, by example all or a subset of, 8 base pairs for a given 8-mer sequence. Approximately one million of the same sequences are provided for each square, each being one of the possible 8-mer sequences. A fluorescently labeled compound or antibody is included. […]

[2] = system: every possible 9-mer DNA sequence; assay: CSI array and specificity landscape of Nkx-2.5; format: binding
From the text: as §1
The cognate site identifier array is a high through put approach for providing a comprehensive profile of the binding properties of DNA-binding molecules. CSI arrays display every permutation of a duplex DNA sequence on a microfabricated array. […]

[3] = system: DNA sequences; assay: Specificity landscapes of DNA-binding proteins (FIGS. 8-10); conditions: circular specificity landscape

How did the “base preference at position 5” value [1] turn out when ImImPy*Py-γ-PyPyPyPy-β-Dp [polyamide] was run?
The value was “prefers a T at position 5”.

And the DNA conformer preference ([1]; B-form duplex vs structural DNA variants)?
Its DNA conformer preference is “prefers double-stranded DNA”.

And the “affinity across permutations of the consensus motif WWGGWWW” value ([1]; innermost ring (Ring 1) of landscape)?
Its value is “does not bind all the permutations of the consensus motif (WWGGWWW) with equal affinity”.

What about the “positions of the motif where mutations are tolerated” value ([1]; one mismatch ring) of the same molecule?
Its value is “tolerates mutations at positions 1 and 3”.

And the “binding to non-B-form DNA bearing high affinity sequences” value ([1]; relative to the duplex)?
The value was “appreciable binding”.

With “Nkx-2.5: Nk2 transcription factor related, locus 5; earliest heart lineage marker; mouse DNA-binding protein” as the molecule, how does the “DNA binding motif from specificity landscape” value [2] read?
Its value is “TNAAGTG and NTAAGTG”.

What about the “binding of sequences identical to motif TTAAGTG” value ([2]; relative intensities, all possible 9-mers) of the same molecule?
The value was “bind well”.

Which DNA sequence bound [3] does the source give for gata4: mouse protein gata4 here?
Its DNA sequence bound is 5′-WGATAA-3′.

B1: msn2: yeast protein msn2 (protein, UniProt P33748 1-704, looked up)
Zinc finger protein MSN2: MTVDHDFNSEDILFPIESMSSIQYVENNNPNNINNDVIPYSLDIKNTVLDSADLNDIQNQETSLNLGLPPLSFDSPLPVTETIPSTTDNSLHLKADSNKNRDARTIENDSEIKSTNNASGSGANQYTTLTSPYPMNDILYNMNNPLQSPSPSSVPQNPTINPPINTASNETNLSPQTSNGNETLISPRAQQHTSIKDNRLSLPNGANSNLFIDTNPNNLNEKLRNQLNSDTNSYSNSISNSNSNSTGNLNSSYFNSLNIDSMLDDYVSSDLLLNDDDDDTNLSRRRFSDVITNQFPSMTNSRNSISHSLDLWNHPKINPSNRNTNLNITTNSTSSSNASPNTTTMNANADSNIAGNPKNNDATIDNELTQILNEYNMNFNDNLGTSTSGKNKSACPSSFDANAMTKINPSQQLQQQLNRVQHKQLTSSHNNSSTNMKSFNSDLYSRRQRASLPIIDDSLSYDLVNKQDEDPKNDMLPNSNLSSSQQFIKPSMILSDNASVIAKVATTGLSNDMPFLTEEGEQNANSTPNFDLSITQMNMAPLSPASSSSTSLATNHFYHHFPQQGHHTMNSKIGSSLRRRKSAVPLMGTVPLTNQQNNISSSSVNSTGNGAGVTKERRPSYRRKSMTPSRRSSVVIESTKELEEKPFHCHICPKSFKRSEHLKRHVRSVHSNERPFACHICDKKFSRSDNLSQHIKTHKKHGDI
For B1, which DNA sequence bound [3] is on record?
Its DNA sequence bound is 5′-ARGGG-3′.
